# Data: publication PMC10221314 (Pharmaceuticals, 2023)
# Legend:
# LXRα = target: T1, LXRα (Homo sapiens, UniProt Q13133); experiment: NR selectivity one-hybrid assay in HEK-293T cells (LXRα); assay type: cell-based; conditions: activated by GW3965
# T1 construct: a fusion plasmid of Gal4 DBD-NR LBD (comprising RXRα, RXRβ, RXRγ, PPARα, PPARβ, PPARγ, LXRα, LXRβ, GPBAR, and PXR); expressed in transfected cells; host or cells: HEK-293T
# T1 sequence (Q13133 209-447 limits assumed): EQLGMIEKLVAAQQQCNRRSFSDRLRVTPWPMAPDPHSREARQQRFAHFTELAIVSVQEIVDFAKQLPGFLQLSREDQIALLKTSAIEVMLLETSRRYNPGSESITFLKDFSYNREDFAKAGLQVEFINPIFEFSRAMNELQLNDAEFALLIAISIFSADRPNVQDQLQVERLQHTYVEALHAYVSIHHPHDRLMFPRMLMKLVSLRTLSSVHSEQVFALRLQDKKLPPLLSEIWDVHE
# Method: To assess the compound’s specificity, the mammalian one-hybrid assay was conducted. In this assay, HEK-293T cells were co-transfected with a fusion plasmid of Gal4 DBD-NR LBD (comprising RXRα, RXRβ, RXRγ, PPARα, PPARβ, PPARγ, LXRα, LXRβ, GPBAR, and PXR) and the UAS-TK-Luc reporter, followed by treatment with various concentrations of the compound. The positive control consisted of the corresponding nuclear receptor agonist, and the concentration used in the experiment was set to the EC50 of the agonist.
# Figure 3 Compound 10b selectively antagonized FXR. The impact of compound 10b on various NRs was evaluated using a […] one-hybrid assay in HEK-293T cells. The cells were transiently co-transfected with a fusion plasmid of Gal4 DBD-NR-LBD, which included PPARα, PPARβ, PPARγ, RXRα, RXRβ, RXRγ, LXRα, LXRβ, GPBAR, PXR, and FXR, in combination with the UAS-TK-Luc reporter. […] The values are expressed as the means ± SE of three independent experiments. *: p < 0.05 vs. RA (relative agonist).
# FXR downstream genes = experiment: mRNA expression of FXR downstream genes in HepG2 cells (qRT-PCR); assay type: cell-based; conditions: 10 μM and 1 μM, 24 h
# Method: (§1) Cells and liver tissue samples were subjected to RNA extraction and purification, followed by reverse transcription of equal amounts of total RNA into […] using a Transcriptor First Strand cDNA Synthesis Kit (Roche). The relative expression levels of the target gene were determined using TaqMan probe/primers with an ABI Q3 quantitative real-time PCR system, while GAPDH/Gapdh was utilized as an internal control for mRNA expression. The fold change in the expression of the target mRNA was calculated using Equation 2^−ΔΔCt.
# (A) Relative mRNA level of SHP; (B) Relative mRNA level of BSEP; (C) Relative mRNA level of CYP7A1; (D) Relative mRNA level of SREBP1c; (E) Relative mRNA level of PEPCK; (F) Expression level of G6Pase. HepG2 cells were seeded in a 6-well plate and treated with DMSO and varying concentrations of compound 10b for 24 h with or without 50 μM of 1. The mRNA levels of SHP, BSEP, CYP7A1, SREBP1c, PEPCK, and G6Pase were quantified and normalized to β-actin expression.
# LX-2 cells = experiment: mRNA expression of liver fibrosis marker genes in TGFβ1-induced LX-2 cells; assay type: cell-based; conditions: 20 μM, induced by 2 ng·mL^−1 TGFβ1, 24 h
# Method: as §1
# (A–E) The LX-2 cells underwent a 24 h treatment of 2 ng·mL^−1 TGFβ1, with or without varying concentrations of candidate compounds, following FBS starvation. […] GAPDH/GAPDH was used as the loading control. The mean ± SD values were obtained from three independent assays. […] ANOVA was followed by Tukey’s test for statistical analysis.
# BDL rats = experiment: Bile duct ligation (BDL) rat model; assay type: in vivo; conditions: 100 mg·kg-1 oral, 14 days
# Method: as §1
# The study involved 24 rats that were randomly assigned to 1 of 3 groups, including sham, BDL-N.S., and BDL-10b-100mg·kg^−1, ensuring 8 animals per group using Research Randomizer (RRID: SCR_008563). Of the 24 rats, 16 underwent BDL surgery, wherein the choledochal duct was ligated with surgical sutures after administering isoflurane anesthesia. After 24 h, the BDL rats were randomly divided into […] and received daily gavages of either normal saline (BDL-NS group) or 100 mg·kg^−1 of compound 10b suspended in 0.5% sodium carboxymethylcellulose solution (BDL-10b groups) for 14 days. A healthy control group was established with eight rats undergoing sham surgery. Bodyweights were measured daily, and blood samples were collected from the abdominal aorta after an overnight fast. Euthanasia was performed using isoflurane, following which bile was collected using a syringe, and liver tissue samples were collected. Some of the samples were fixed with 4% paraformaldehyde for subsequent histological examination, while others were stored at −80 °C for further analysis.
# Kits purchased from Zhongsheng Beikong Biotechnology (Beijing, China) were used to measure the serum concentrations of alanine aminotransferase, aspartate aminotransferase, alkaline phosphatase, γ-glutamyl transpeptidase, total cholesterol, total triglyceride, low-density lipoprotein (LDL), high-density lipoprotein (HDL) cholesterol, lactate dehydrogenase, total bile acid, and total bilirubin. The samples were analyzed on a Hitachi 7100 Analyzer.
# The liver tissue was fixed with formalin, embedded in paraffin, and sectioned. The sections were stained with H&E, Oil Red, Masson’s, and Sirius Red. Liver necrosis, inflammation, bile duct proliferation, hepatic steatosis, and lobule inflammation were evaluated on a scale of 1–5 in a blinded manner using a Leica DM1000 microscope. Five randomly selected manifold area fields of vision were used to quantify the red area in each field of vision (eight in each group), which was counted using ImageJ software. The liver hydroxyproline concentration was determined using kits from Nanjing, China, in accordance with the manufacturer’s instructions.
# [1] = in the presence and absence of compound 1 (50 μM)
smiles,measurement,setting,value
"CC1(C)CCC2(C(=O)O)CCC3(C)C(C(OC(=O)CCC(NC(=O)OC(C)(C)C)C(=O)OC(C)(C)C)CC4C5(C)CCC(O)C(C)(C)C5CCC43C)C2C1 [Compound 10b, 3β-hydroxy-12β-(4′-((tert-butoxycarbonyl)amide)-5′-(tert-butoxy)-L-glutamte)oxy-13H-olean-28-oic acid]",antagonistic effects against LXRα,LXRα,10–20%
same,expression of G6Pase (mRNA),FXR downstream genes,inhibited the expression
same,expression of PEPCK (mRNA),FXR downstream genes,inhibited the expression
same,expression of BSEP (mRNA),FXR downstream genes; [1],inhibit
same,expression of CYP7A1 (mRNA),FXR downstream genes; [1],increasing the expression
same,expression of SHP (mRNA),FXR downstream genes; [1],inhibit
same,expression of SREBP1c (mRNA),FXR downstream genes; [1],inhibit
same,mRNA expression of ACTA2,LX-2 cells,significantly decrease
same,mRNA expression of COL1A1,LX-2 cells,significantly decrease
same,mRNA expression of CTGF,LX-2 cells,significantly decrease
same,mRNA expression of ITGAV,LX-2 cells,significantly decrease
same,mRNA expression of TGFb1,LX-2 cells,significantly decrease
same,Bile TBA,BDL rats,249.4 ± 103.67 µmol/L
same,Bile TBiL,BDL rats,5.8 ± 2.46 µmol/L
same,Serum ALP,BDL rats,391.33±52.42 U·L-1
same,Serum HDL,BDL rats,0.29 ± 0.06 mmol/L
same,Serum LDL,BDL rats,1.06 ± 0.22 mmol/L
same,Serum γ-GT,BDL rats,37.5±6.74 U·L-1
same,Urine TBA,BDL rats,15.38 ± 5.76 µmol/L
same,Urine TBiL,BDL rats,5.33 ± 1.50 µmol/L
same,"expression of fibrogenic genes Col1a1, Acta2, Tgfb1, Mmp2, Timp1, Itgav, Ctgf in rat liver (qRT-PCR)",BDL rats,reduced
same,liver collagen accumulation (Sirius red staining),BDL rats,significantly attenuated
same,"pathological impairments (bile duct hyperplasia, parenchymal necrosis, inflammation; H&E)",BDL rats,substantially reduced
same,liver necrosis scores (blinded assessment),BDL rats; vs BDL rats,significantly lower
